Key:
Details in all cases: 2 μM, 24 h, vs DMSO
A-498 cells = test: IFN/cytokine gene expression (qRT-PCR) and secretion (MSD) in A-498 cells; assay type: cell-based, human
Method: (§1) RNA was isolated using the PureLink kit (#12183018A; Thermo Fisher) and DNA‐binding columns (Rneasy plus kit, #74134; Qiagen) and/or Dnase treatment (#12185010; Thermo Fisher). After quantification using NanoDrop, 50 ng·μL^−1 RNA was used for cDNA synthesis with SuperScript IV VILO Master Mix (#11756050; Thermo Fisher). Quantitative RT‐PCR was run with diluted cDNA (1 : 25 or 1 : 12.5), PowerUp SYBR Green Master Mix (#A25741; Thermo Fisher), and 200 nM primers (see Table S3) on a CFX Connect RT‐PCR system (BioRad, Hercules, CA, USA). Data were analyzed using the ΔΔCT method.
(§2) Cell culture medium was centrifuged at 300 g for 10 min at 4 °C and supernatant stored at −80 °C. Mouse blood was collected at termination in K2‐EDTA tubes on ice, centrifuged at 1270 g for 10 min at 4 °C, and plasma was stored at −80 °C. Cytokine levels were quantified using Mesoscale Discovery (MSD) assays: human CCL5 (#F21ZN), CXCL10 (#K151UFK), IFNβ (#K151VIK); mouse CCL5 (#K152A2K) and CXCL10 (#K152UFK). Low concentrations of human IFNβ were determined using High‐Sensitivity IFNβ ELISA (#41415‐1; PBL Assay Science, Piscataway, NJ, USA). CCL5/CXCL10 levels in some experiments were quantified using R&D Systems (Minneapolis, MN, USA) ELISAs: human CCL5 (#DY278) or CXCL10 (#DY266); mouse CCL5 (#DY478).

B16-F10 cells = test: IFN/cytokine gene expression (qRT-PCR) and secretion (MSD) in B16-F10 cells; assay type: cell-based, murine
Method: as §1, §2

Me30966 cells = test: Gene expression (qRT-PCR) in Me30966 cells; assay type: cell-based, human
Method: (A) IFNB1 gene expression quantified by qRT-PCR after 24h treatment with DMSO control or 2 µM of VPS34 inhibitor
(=VPS34i, SB02024 or SAR405) in Me30966 cells.

C[C@@H]1COCCN1c1cc(=O)n2c(n1)N(Cc1cncc(Cl)c1)[C@H](C(F)(F)F)CC2 [SAR405, reference compound]
significantly increased: transcription of IFNB1 and ISGs IRF1, IRF7, IRF9 (A-498 cells) | transcription of IFNB1 and ISGs IRF1, IRF7, IRF9 (B16-F10 cells) | IFNB1 expression (Me30966 cells)
